Columns and labels:
wheat = assay: Test C preemergence/postemergence greenhouse plant response rating 0 to 100; assay type: in vivo, Triticum aestivum; conditions: POSTEMERGENCE; for Plant response rating, Wheat: 0 to 100 scale
Summary of the method: (§1)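 Compounds in non-phytotoxic solvent went onto sandy loam before emergence (seeded one day earlier) or onto plants at the one-to-four leaf stage. Duck salad was treated via flood water (~2.5 cm, maintained) over silt loam.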

sorghum = assay: Test B preemergence/postemergence greenhouse plant response rating 0 to 10; assay type: in vivo, Sorghum bicolor; conditions: 0 to 10 scale
Summary of the method: (§2)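 Both application timings were run together: seeds got compound preemergence, and established seedlings (two to eighteen cm) got it postemergence. Non-phytotoxic solvent carried the chemical. Ratings are visual, versus controls, at twelve to sixteen days.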

velvetleaf = assay: as above; assay type: in vivo, Abutilon theophrasti; conditions: 0 to 10 scale
Summary of the method: as §2

rape = assay: Test C preemergence/postemergence greenhouse plant response rating 0 to 100; assay type: in vivo, Brassica napus; conditions: POSTEMERGENCE; for Plant response rating, Rape: 0 to 100 scale
Summary of the method: as §1

corn [1] = assay: as above; assay type: in vivo, Zea mays; conditions: POSTEMERGENCE; for Plant response rating, Corn: 0 to 100 scale
Summary of the method: as §1

ryegrass = assay: as above; assay type: in vivo, Lolium multiflorum; conditions: POSTEMERGENCE; for Plant response rating Ryegrass: 0 to 100 scale
Summary of the method: as §1

rice = assay: Test C flood test plant response rating 0 to 100; assay type: in vivo, Oryza sativa; conditions: for Plant response rating Rice Japonica: flood test species listed under POSTEMERGENCE, 0 to 100 scale
Summary of the method: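 Compounds in non-phytotoxic solvent applied preemergence to sandy loam one day after planting, postemergence at the 1–4 leaf stage, or to ~2.5 cm floodwater over silt loam.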

chickweed = assay: Test B preemergence/postemergence greenhouse plant response rating 0 to 10; assay type: in vivo, Stellaria media; conditions: 0 to 10 scale
Summary of the method: as §2

barnyardgrass = assay: as above; assay type: in vivo, Echinochloa crus-galli; conditions: 0 to 10 scale
Summary of the method: as §2

wild oat = assay: Test C preemergence/postemergence greenhouse plant response rating 0 to 100; assay type: in vivo, Avena fatua; conditions: POSTEMERGENCE; for Plant response rating, Wild oat: 0 to 100 scale
Summary of the method: as §1

barley = assay: Test B preemergence/postemergence greenhouse plant response rating 0 to 10; assay type: in vivo, Hordeum vulgare; conditions: 0 to 10 scale
Summary of the method: as §2

sugar beet = assay: as above; assay type: in vivo, Beta vulgaris; conditions: 0 to 10 scale
Summary of the method: as §2

corn [2] = assay: as above; assay type: in vivo, Zea mays; conditions: 0 to 10 scale
Summary of the method: as §2

purple nutsedge = assay: as above; assay type: in vivo, Cyperus rotundus; conditions: 0 to 10 scale
Summary of the method: as §2

morningglory = assay: Test C preemergence/postemergence greenhouse plant response rating 0 to 100; assay type: in vivo, Ipomoea hederacea; conditions: POSTEMERGENCE; for Plant response rating, Morningglory: 0 to 100 scale
Summary of the method: as §1

crabgrass = assay: as above; assay type: in vivo, Digitaria sanguinalis; conditions: POSTEMERGENCE; for Plant response rating, Crabgrass: 0 to 100 scale
Summary of the method: as §1

bedstraw = assay: as above; assay type: in vivo, Galium aparine; conditions: POSTEMERGENCE; for Plant response rating, Bedstraw: 0 to 100 scale
Summary of the method: as §1

blackgrass = assay: Test B preemergence/postemergence greenhouse plant response rating 0 to 10; assay type: in vivo, Alopecurus myosuroides; conditions: 0 to 10 scale
Summary of the method: as §2

SMILES: CCC(C)Oc1cc(-c2nn3c(c2Cl)CCCC3)c(F)cc1Cl (centres unmarked) [Compound 48]
- Plant response rating, Wheat (wheat; 62 g/ha): 30
- Plant response rating, Wheat (wheat; 250 g/ha): 50
- Plant response rating (0 to 100), Wheat (wheat; Rate 4 g/ha): 10
- Plant response rating (0 to 100), Wheat (wheat; Rate 16 g/ha): 20
- Plant response rating, Sorghum (sorghum; POSTEMERGENCE, Rate 50 g/ha): 4
- Plant response rating, Sorghum (sorghum; PREEMERGENCE, Rate 50 g/ha): 0
- Plant response rating, Sorghum (sorghum; Rate 200 g/ha, POSTEMERGENCE): 6
- Plant response rating, Sorghum (sorghum; Rate 200 g/ha, PREEMERGENCE): 1
- Plant response rating, Velvetleaf (velvetleaf; POSTEMERGENCE, Rate 50 g/ha): 9
- Plant response rating, Velvetleaf (velvetleaf; PREEMERGENCE, Rate 50 g/ha): 0
- Plant response rating, Velvetleaf (velvetleaf; Rate 200 g/ha, POSTEMERGENCE): 10
- Plant response rating, Velvetleaf (velvetleaf; Rate 200 g/ha, PREEMERGENCE): 4
- Plant response rating, Rape (rape; 62 g/ha): 50
- Plant response rating, Rape (rape; 250 g/ha): 90
- Plant response rating (0 to 100), Rape (rape; Rate 4 g/ha): 30
- Plant response rating (0 to 100), Rape (rape; Rate 16 g/ha): 30
- Plant response rating, Corn (corn [1]; 62 g/ha): 40
- Plant response rating, Corn (corn [1]; 250 g/ha): 50
- Plant response rating (0 to 100), Corn (corn [1]; Rate 4 g/ha): 10
- Plant response rating (0 to 100), Corn (corn [1]; Rate 16 g/ha): 30
- Plant response rating Ryegrass (ryegrass; 62 g/ha): 30
- Plant response rating Ryegrass (ryegrass; 250 g/ha): 50
- Plant response rating (0 to 100), Ryegrass (ryegrass; Rate 4 g/ha): 10
- Plant response rating (0 to 100), Ryegrass (ryegrass; Rate 16 g/ha): 20
- Plant response rating (0 to 100), Rice Japonica (rice; POSTEMERGENCE section, flood test, Rate 4 g/ha): 10
- Plant response rating (0 to 100), Rice Japonica (rice; Rate 16 g/ha, under POSTEMERGENCE head (flood test species)): 20
- Plant response rating Rice Japonica (rice; 62 g/ha): 30
- Plant response rating Rice Japonica (rice; 250 g/ha): 60
- Plant response rating, Chickweed (chickweed; POSTEMERGENCE, Rate 50 g/ha): 9
- Plant response rating, Chickweed (chickweed; POSTEMERGENCE, Rate 200 g/ha): 8
- Plant response rating, Chickweed (chickweed; Rate 200 g/ha, PREEMERGENCE): 4
- Plant response rating, Barnyardgrass (barnyardgrass; POSTEMERGENCE, Rate 50 g/ha): 4
- Plant response rating, Barnyardgrass (barnyardgrass; POSTEMERGENCE, Rate 200 g/ha): 8
- Plant response rating, Barnyardgrass (barnyardgrass; PREEMERGENCE, Rate 50 g/ha): 2
- Plant response rating, Barnyardgrass (barnyardgrass; Rate 200 g/ha, PREEMERGENCE): 3
- Plant response rating, Wild oat (wild oat; 62 g/ha): 40
- Plant response rating, Wild oat (wild oat; 250 g/ha): 60
- Plant response rating (0 to 100), Wild oat (wild oat; Rate 4 g/ha): 20
- Plant response rating (0 to 100), Wild oat (wild oat; Rate 16 g/ha): 30
- Plant response rating, Barley (barley; POSTEMERGENCE, Rate 50 g/ha): 7
- Plant response rating, Barley (barley; POSTEMERGENCE, Rate 200 g/ha): 5
- Plant response rating, Barley (barley; PREEMERGENCE, Rate 50 g/ha): 0
- Plant response rating, Barley (barley; Rate 200 g/ha, PREEMERGENCE): 0
- Plant response rating, Sugar beet (sugar beet; POSTEMERGENCE, Rate 50 g/ha): 10
- Plant response rating, Sugar beet (sugar beet; PREEMERGENCE, Rate 50 g/ha): 9
- Plant response rating, Sugar beet (sugar beet; Rate 200 g/ha, POSTEMERGENCE): 10
- Plant response rating, Sugar beet (sugar beet; Rate 200 g/ha, PREEMERGENCE): 10
- Plant response rating, Corn (corn [2]; POSTEMERGENCE, Rate 50 g/ha): 3
- Plant response rating, Corn (corn [2]; POSTEMERGENCE, Rate 200 g/ha): 3
- Plant response rating, Corn (corn [2]; PREEMERGENCE, Rate 50 g/ha): 0
- Plant response rating, Corn (corn [2]; Rate 200 g/ha, PREEMERGENCE): 1
- Plant response rating, Nutsedge (purple nutsedge; POSTEMERGENCE, Rate 50 g/ha): 4
- Plant response rating, Nutsedge (purple nutsedge; PREEMERGENCE, Rate 50 g/ha): 0
- Plant response rating, Nutsedge (purple nutsedge; Rate 200 g/ha, POSTEMERGENCE): 5
- Plant response rating, Nutsedge (purple nutsedge; Rate 200 g/ha, PREEMERGENCE): 0
- Plant response rating, Morningglory (morningglory; 62 g/ha): 60
- Plant response rating, Morningglory (morningglory; 250 g/ha): 95
- Plant response rating (0 to 100), Morningglory (morningglory; Rate 4 g/ha): 30
- Plant response rating (0 to 100), Morningglory (morningglory; Rate 16 g/ha): 50
- Plant response rating, Crabgrass (crabgrass; 62 g/ha): 30
- Plant response rating, Crabgrass (crabgrass; 250 g/ha): 40
- Plant response rating (0 to 100), Crabgrass (crabgrass; Rate 4 g/ha): 10
- Plant response rating (0 to 100), Crabgrass (crabgrass; Rate 16 g/ha): 20
- Plant response rating, Bedstraw (bedstraw; 62 g/ha): 100
- Plant response rating, Bedstraw (bedstraw; 250 g/ha): 100
- Plant response rating (0 to 100), Bedstraw (bedstraw; Rate 4 g/ha): 20
- Plant response rating (0 to 100), Bedstraw (bedstraw; Rate 16 g/ha): 40
- Plant response rating, Blackgrass (blackgrass; POSTEMERGENCE, Rate 50 g/ha): 6
- Plant response rating, Blackgrass (blackgrass; POSTEMERGENCE, Rate 200 g/ha): 6
- Plant response rating, Blackgrass (blackgrass; PREEMERGENCE, Rate 50 g/ha): 0
- Plant response rating, Blackgrass (blackgrass; Rate 200 g/ha, PREEMERGENCE): 5

Reference: patent US6358885B1, “Substituted phenylheterocyclic herbicides” (Mississippi State University, priority 1992, dated 2002)
